Experimental data reported in ChEMBL document CHEMBL4043168, “The design and SAR of a novel series of 2-aminopyridine based LRRK2 inhibitors” (Bioorg Med Chem Lett, 2017).

How the values were obtained:
[1] = biological target: Mitogen-activated protein kinase kinase kinase kinase 5 (Homo sapiens) (UniProt Q9Y4K4); test: Inhibition of KHS1 conserved Lys1 (NVHTGELAAVKIIK) in human PBMC at 0.1 uM
[2] = biological target: Protein kinase C alpha type (Homo sapiens) (UniProt P17252); test: Inhibition of PKCa conserved Lys2 (DLKLDNVMLDSEGHIK) in human PBMC at 1 uM
[3] = biological target: T1, Mitogen-activated protein kinase kinase kinase 6 (Homo sapiens) (UniProt O95382); test: Inhibition of MAP3K6 conserved Lys2 (DIKGDNVLINTFSGLLK) in human PBMC at 0.1 uM
T1 sequence (whole entry): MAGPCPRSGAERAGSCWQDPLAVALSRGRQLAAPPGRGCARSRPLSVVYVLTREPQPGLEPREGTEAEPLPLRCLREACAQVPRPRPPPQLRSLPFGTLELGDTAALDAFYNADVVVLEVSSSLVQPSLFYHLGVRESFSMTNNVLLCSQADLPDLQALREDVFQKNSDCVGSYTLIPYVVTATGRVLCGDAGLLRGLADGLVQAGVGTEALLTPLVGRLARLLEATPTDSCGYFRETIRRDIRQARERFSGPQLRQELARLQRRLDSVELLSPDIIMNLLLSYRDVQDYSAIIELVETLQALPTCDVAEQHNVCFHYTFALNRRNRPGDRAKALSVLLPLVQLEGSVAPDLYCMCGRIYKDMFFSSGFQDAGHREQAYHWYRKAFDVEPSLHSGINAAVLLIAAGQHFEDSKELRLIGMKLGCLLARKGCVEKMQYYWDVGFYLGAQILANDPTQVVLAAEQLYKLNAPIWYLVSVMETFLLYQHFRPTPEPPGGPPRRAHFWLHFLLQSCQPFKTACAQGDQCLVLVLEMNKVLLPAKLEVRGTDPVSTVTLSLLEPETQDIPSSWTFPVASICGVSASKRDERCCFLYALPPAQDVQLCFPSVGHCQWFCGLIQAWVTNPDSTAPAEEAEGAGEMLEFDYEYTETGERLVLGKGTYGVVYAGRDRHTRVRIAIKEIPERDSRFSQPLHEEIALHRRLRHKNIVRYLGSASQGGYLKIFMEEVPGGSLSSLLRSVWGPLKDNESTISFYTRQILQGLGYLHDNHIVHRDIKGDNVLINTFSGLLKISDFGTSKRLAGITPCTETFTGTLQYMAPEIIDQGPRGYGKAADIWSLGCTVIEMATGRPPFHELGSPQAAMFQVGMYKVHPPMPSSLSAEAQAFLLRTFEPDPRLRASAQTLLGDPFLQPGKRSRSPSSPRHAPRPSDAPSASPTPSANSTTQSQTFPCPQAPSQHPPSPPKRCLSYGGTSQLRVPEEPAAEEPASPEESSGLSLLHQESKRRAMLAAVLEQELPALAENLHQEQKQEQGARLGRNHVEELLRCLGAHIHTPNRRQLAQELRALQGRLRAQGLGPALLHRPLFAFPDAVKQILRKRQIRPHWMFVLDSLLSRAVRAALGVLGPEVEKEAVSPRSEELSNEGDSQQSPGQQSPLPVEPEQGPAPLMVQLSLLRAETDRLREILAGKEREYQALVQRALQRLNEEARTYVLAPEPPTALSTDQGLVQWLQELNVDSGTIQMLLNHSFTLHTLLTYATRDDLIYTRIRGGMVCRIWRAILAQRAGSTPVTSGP

[4] = biological target: Ribosomal protein S6 kinase alpha-1 (Homo sapiens) (UniProt Q15418); test: Inhibition of RSK1 conserved Lys2 (DLKPENILLDEEGHIK) in human PBMC at 1 uM; conditions: pooled result: one value given for 4 cell lines, strains, targets or settings
Ribosomal protein S6 kinase alpha-1 (Homo sapiens), sequence (Q15418 whole entry): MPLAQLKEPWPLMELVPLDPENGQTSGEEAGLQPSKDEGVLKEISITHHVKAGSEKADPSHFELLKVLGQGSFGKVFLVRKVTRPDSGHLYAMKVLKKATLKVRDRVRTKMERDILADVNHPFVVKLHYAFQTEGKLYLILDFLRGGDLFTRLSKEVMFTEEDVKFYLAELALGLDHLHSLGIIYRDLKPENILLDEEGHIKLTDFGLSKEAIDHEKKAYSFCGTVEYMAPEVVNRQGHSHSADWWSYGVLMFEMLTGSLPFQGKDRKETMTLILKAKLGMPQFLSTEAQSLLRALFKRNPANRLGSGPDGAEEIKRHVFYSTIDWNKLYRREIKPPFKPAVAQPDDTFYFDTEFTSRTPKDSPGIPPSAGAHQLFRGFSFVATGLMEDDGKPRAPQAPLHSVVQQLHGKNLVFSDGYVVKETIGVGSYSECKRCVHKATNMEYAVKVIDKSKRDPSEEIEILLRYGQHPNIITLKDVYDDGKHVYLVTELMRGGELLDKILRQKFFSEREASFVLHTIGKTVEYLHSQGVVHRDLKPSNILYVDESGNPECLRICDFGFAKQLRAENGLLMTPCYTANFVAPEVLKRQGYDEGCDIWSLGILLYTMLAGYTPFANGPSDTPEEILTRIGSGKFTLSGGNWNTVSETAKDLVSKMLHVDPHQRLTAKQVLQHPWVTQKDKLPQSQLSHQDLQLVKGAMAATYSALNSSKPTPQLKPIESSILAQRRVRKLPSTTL

[5] = biological target: T2, Interleukin-1 receptor-associated kinase 4 (Homo sapiens) (UniProt Q9NWZ3); test: Inhibition of IRAK4 conserved Lys2 (DIKSANILLDEAFTAK) in human PBMC at 0.1 uM
T2 sequence (whole entry): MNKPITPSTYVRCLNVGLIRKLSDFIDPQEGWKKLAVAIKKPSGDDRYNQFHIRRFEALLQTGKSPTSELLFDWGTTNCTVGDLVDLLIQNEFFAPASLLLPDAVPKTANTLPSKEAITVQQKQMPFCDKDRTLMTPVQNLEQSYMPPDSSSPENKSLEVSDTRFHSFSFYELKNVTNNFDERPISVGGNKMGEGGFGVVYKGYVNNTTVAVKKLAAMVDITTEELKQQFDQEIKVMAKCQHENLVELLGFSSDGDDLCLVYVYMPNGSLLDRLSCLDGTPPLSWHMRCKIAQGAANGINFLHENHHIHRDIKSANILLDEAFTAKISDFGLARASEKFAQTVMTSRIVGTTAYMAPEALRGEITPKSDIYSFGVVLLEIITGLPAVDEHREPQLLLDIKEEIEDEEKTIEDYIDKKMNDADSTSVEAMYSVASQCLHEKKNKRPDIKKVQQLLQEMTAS

[6] = biological target: T2, Interleukin-1 receptor-associated kinase 4 (Homo sapiens); test: Inhibition of IRAK4 conserved Lys2 (DIKSANILLDEAFTAK) in human PBMC at 1 uM
[7] = biological target: Tyrosine-protein kinase JAK2 (Homo sapiens) (UniProt O60674); test: Inhibition of JAK2 domain2 activation Loop (IGDFGLTKVLPQDKEYYK) in human PBMC at 1 uM
Tyrosine-protein kinase JAK2 (Homo sapiens), sequence (O60674 whole entry, the tested form may be a part): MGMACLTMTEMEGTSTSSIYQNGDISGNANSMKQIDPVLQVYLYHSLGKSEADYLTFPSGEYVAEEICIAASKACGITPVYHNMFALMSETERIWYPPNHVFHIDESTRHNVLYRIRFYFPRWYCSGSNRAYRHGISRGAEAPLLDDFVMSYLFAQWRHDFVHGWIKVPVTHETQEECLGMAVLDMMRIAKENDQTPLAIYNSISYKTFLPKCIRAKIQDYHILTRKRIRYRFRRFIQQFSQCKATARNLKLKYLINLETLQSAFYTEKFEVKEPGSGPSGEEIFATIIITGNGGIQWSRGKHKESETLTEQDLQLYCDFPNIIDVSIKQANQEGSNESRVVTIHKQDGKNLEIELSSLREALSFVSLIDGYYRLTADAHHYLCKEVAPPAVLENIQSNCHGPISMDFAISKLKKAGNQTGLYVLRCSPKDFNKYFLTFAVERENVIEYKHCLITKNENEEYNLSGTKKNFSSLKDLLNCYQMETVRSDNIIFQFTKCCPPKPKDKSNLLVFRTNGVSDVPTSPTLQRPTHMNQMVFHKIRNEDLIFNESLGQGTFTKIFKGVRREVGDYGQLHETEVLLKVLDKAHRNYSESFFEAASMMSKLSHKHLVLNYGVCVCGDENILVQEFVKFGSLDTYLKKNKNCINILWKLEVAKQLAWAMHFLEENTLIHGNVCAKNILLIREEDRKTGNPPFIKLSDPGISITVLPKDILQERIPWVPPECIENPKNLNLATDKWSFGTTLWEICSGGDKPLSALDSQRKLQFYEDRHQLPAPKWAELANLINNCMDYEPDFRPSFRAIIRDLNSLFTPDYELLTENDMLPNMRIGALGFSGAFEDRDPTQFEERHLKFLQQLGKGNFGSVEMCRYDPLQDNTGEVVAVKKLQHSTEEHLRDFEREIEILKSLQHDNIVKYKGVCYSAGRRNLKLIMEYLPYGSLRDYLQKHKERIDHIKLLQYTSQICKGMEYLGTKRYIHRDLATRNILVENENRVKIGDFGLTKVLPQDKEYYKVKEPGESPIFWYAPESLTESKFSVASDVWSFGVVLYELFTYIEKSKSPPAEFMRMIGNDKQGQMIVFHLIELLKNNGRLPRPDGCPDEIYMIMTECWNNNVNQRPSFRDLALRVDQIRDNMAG

[8] = biological target: Cyclin-dependent kinase 2 (Homo sapiens) (UniProt P24941); test: Inhibition of CDK2 labeling at conserved Lys2 (DLKPQNLLINTEGAIK) in human PBMC at 1 uM
[9] = biological target: Serine/threonine-protein kinase 10 (Homo sapiens) (UniProt O94804); test: Inhibition of LOK conserved Lys1 (NKETGALAAAKVIETK) in human PBMC at 1 uM
[10] = biological target: Tyrosine-protein kinase Fgr (Homo sapiens) (UniProt P09769); test: Inhibition of FGR conserved Lys1 (LIKDDEYNPCQGSKFPIK) in human PBMC at 1 uM
Tyrosine-protein kinase Fgr (Homo sapiens), sequence (P09769 2-529 limits assumed): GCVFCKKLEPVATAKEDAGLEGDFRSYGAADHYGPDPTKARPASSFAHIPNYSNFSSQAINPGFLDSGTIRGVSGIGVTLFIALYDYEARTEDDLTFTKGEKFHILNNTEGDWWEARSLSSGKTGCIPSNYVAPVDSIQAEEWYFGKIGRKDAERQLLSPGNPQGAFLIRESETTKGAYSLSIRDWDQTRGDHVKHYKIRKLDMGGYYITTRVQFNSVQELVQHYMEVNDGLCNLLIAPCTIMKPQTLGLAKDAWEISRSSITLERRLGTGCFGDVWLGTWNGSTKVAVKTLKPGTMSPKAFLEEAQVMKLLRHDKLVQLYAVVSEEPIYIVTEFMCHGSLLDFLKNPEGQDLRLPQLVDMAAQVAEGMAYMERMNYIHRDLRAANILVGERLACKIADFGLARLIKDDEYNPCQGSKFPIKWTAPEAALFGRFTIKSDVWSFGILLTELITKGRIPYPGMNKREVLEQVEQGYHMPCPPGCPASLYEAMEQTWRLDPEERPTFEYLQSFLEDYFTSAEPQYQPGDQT

[11] = biological target: Phosphatidylinositol 5-phosphate 4-kinase type-2 alpha (Homo sapiens) (UniProt P48426); test: Inhibition of PIP4K2A ATP binding site (AKELPTLKDNDFINEGQK) in human PBMC at 0.1 uM
Phosphatidylinositol 5-phosphate 4-kinase type-2 alpha (Homo sapiens), sequence (P48426 whole entry): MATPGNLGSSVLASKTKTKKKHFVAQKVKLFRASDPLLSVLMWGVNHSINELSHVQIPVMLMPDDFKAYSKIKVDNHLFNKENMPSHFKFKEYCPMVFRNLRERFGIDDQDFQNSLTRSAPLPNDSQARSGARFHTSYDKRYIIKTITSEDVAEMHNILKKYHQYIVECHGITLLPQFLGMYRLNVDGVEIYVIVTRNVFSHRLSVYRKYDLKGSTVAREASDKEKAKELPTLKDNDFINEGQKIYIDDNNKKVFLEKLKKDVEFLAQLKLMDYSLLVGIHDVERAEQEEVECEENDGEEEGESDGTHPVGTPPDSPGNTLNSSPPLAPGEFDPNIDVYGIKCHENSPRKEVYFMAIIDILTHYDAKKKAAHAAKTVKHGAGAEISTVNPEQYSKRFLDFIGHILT

[12] = biological target: STE20-like serine/threonine-protein kinase (Homo sapiens) (UniProt Q9H2G2); test: Inhibition of SLK conserved Lys1 (AQNKETSVLAAAKVIDTK) in human PBMC at 1 uM
STE20-like serine/threonine-protein kinase (Homo sapiens), sequence (Q9H2G2 whole entry, looked up): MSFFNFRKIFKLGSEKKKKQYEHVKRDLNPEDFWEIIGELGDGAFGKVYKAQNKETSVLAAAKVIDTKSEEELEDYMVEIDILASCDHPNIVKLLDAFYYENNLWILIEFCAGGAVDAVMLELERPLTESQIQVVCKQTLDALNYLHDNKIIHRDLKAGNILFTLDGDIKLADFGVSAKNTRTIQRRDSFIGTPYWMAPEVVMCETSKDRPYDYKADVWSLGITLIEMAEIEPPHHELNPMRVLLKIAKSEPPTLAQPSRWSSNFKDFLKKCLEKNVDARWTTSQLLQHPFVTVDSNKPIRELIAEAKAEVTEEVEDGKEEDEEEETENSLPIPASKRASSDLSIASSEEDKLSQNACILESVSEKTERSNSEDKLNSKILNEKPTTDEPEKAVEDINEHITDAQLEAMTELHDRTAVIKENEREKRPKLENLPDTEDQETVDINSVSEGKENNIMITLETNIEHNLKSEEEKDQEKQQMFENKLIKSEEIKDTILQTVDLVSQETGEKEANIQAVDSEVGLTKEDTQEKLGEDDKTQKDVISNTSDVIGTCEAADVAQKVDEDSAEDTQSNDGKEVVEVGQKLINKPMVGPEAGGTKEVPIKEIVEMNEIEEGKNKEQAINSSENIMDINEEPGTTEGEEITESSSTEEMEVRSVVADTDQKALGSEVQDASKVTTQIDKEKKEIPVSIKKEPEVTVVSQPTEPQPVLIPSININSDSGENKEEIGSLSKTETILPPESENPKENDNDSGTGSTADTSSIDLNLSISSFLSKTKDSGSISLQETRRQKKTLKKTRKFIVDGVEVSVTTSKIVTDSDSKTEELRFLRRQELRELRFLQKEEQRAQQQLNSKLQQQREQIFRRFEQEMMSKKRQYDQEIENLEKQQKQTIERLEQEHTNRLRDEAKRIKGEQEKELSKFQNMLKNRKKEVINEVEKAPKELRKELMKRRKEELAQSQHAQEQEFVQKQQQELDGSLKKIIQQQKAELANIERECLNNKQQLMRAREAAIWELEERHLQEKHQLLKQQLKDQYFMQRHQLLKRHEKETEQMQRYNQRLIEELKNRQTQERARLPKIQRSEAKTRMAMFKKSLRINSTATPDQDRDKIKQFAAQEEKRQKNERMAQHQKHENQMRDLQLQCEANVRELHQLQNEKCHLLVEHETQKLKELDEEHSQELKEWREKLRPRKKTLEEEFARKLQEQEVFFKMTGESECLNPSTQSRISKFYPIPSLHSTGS

[13] = biological target: Cyclin-dependent kinase 2 (Homo sapiens) (UniProt P24941); test: Inhibition of CDK2 labeling at conserved Lys1 (LTGEVVALKK) in human PBMC at 1 uM
[14] = biological target: RAC-beta serine/threonine-protein kinase (Homo sapiens) (UniProt P31751); test: Inhibition of AKT2 labeling at ATP binding site (GTFGKVILVR) in human PBMC at 0.1 uM
RAC-beta serine/threonine-protein kinase (Homo sapiens), sequence (P31751 whole entry): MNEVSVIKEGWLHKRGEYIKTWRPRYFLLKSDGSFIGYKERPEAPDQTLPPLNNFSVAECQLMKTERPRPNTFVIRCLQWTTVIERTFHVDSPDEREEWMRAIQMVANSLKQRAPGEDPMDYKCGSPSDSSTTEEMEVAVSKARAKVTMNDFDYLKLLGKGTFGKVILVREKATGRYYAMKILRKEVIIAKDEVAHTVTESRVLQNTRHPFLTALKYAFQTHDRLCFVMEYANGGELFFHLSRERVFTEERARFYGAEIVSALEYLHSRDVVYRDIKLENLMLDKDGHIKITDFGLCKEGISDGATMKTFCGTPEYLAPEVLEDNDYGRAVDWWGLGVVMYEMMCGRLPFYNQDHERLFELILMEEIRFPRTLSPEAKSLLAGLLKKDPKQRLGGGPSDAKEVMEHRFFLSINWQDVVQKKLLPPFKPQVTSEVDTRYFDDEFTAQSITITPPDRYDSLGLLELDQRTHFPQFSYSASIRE

[15] = biological target: Serine/threonine-protein kinase Nek4 (Homo sapiens) (UniProt P51957); test: Inhibition of NEK4 conserved Lys2 (DLKTQNVFLTR) in human PBMC at 0.1 uM

CC(C)n1cc(-c2cc(-c3ccc(CN4CCOCC4)cc3)cnc2N)nn1
inhibition [1]: 14.7% | inhibition [2]: -7.4% | inhibition [3]: -0.5% | inhibition [4]: 10.2% | inhibition [5]: -1.8% | inhibition [6]: -2.5% | inhibition [7]: 5.2% | inhibition [8]: 16.8% | inhibition [9]: 32.2% | inhibition [10]: -8.4% | inhibition [11]: 10.3% | inhibition [12]: 0.3% | inhibition [13]: 11.3% | inhibition [14]: 17.1% | inhibition [15]: 5.6%
